Laboratory results as given in patent US20090325964A1, “Piperazine Metabotropic Glutamate Receptor 5 (MGLUR5) Negative Allosteric Modulators For Anxiety/Depression” (Wyeth, priority 2008, published 2009).

target: T1, rat mGluR5 receptor (Rattus norvegicus, UniProt P31424); assay: [3H]-MPEP displacement binding assay, HEK-293 cell membranes expressing rat mGluR5; conditions: 1 h, single point, @ 10 μm compound; Table 1A; read-out: PCT INHIB (%) @ 10 μm
T1 construct: expressed in transfected cells; host or cells: HEK-293
T1 sequence (P31424 21-1203): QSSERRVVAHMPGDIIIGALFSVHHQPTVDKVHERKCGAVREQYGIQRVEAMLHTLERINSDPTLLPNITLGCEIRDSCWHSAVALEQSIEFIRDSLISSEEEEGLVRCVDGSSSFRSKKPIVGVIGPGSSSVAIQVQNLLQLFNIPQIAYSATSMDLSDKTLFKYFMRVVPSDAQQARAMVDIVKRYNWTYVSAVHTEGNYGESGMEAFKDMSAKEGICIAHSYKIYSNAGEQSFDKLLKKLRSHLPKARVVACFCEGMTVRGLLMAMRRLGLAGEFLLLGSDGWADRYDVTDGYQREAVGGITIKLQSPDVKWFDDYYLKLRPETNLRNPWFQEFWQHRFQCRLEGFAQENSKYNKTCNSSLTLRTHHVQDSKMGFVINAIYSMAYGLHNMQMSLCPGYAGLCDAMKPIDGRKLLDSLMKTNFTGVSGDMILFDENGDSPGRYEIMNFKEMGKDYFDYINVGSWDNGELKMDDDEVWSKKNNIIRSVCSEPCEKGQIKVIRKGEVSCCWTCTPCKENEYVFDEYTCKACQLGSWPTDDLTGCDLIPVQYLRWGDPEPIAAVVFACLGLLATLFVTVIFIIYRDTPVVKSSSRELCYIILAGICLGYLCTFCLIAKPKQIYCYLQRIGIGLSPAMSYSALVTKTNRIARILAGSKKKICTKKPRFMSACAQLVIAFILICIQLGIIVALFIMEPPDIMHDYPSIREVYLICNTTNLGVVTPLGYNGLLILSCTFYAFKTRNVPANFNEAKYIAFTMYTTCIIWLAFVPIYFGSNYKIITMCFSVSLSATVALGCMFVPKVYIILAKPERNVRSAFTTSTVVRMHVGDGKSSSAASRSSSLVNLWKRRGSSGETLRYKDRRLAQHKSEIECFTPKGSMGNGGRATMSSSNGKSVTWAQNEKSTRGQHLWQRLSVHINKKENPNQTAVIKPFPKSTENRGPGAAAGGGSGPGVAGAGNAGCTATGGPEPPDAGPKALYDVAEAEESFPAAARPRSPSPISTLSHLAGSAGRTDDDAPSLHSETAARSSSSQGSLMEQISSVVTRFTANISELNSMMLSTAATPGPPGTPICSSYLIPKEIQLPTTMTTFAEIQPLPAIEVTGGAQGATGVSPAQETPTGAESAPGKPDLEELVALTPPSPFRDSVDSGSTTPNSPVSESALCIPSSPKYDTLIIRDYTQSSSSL
In short: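 Membranes from HEK-293 cells expressing rat mGluR5 (12-25 μg protein), incubated 60 min at room temperature with 4 nM [3H]-MPEP in 50 mM Tris pH 7.5, then filtered. Nonspecific binding defined with 10 μM MPEP.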

Compound | inhibition at 10 µM [%]
Cc1ccc(C#Cc2cccc(C(=O)N3CCN(c4ccccn4)CC3)c2)cc1 [Compound 1, 1-{3-[(4-methylphenyl)ethynyl]benzoyl}-4-pyridin-2-ylpiperazine] | 55
COc1ccc(C(=O)N2CCN(c3ccccn3)CC2)cc1C#Cc1cc(C(F)(F)F)cc(C(F)(F)F)c1 [Compound 44, 1-(3-{[3,5-bis(trifluoromethyl)phenyl]ethynyl}-4-methoxybenzoyl)-4-pyridin-2-ylpiperazine] | 0
Cc1cccc(C#Cc2cc(C(=O)N3CCN(c4cnccn4)CC3)ccc2C)c1 [Compound 59, 2-(4-{4-methyl-3-[(3-methylphenyl)ethynyl]benzoyl}piperazin-1-yl)pyrazine] | 100
COc1ccc(C(=O)N2CCN(c3cnccn3)CC2)cc1C#Cc1cccc(C)c1 [Compound 53, 2-(4-{4-methoxy-3-[(3-methylphenyl)ethynyl]benzoyl}piperazin-1-yl)pyrazine] | 95
Nc1cccc(C#Cc2cccc(C(=O)N3CCN(c4ccccn4)CC3)c2)c1 [Compound 11, 3-({3-[(4-pyridin-2-ylpiperazin-1-yl)carbonyl]phenyl}ethynyl)aniline] | 85
COc1ccc(C(=O)N2CCN(c3ccccn3)CC2)cc1C#CCc1ccccc1 [Compound 16, 1-[4-methoxy-3-(3-phenylprop-1-yn-1-yl)benzoyl]-4-pyridin-2-ylpiperazine] | 84
Cc1ccc(C(=O)N2CCN(c3ccccn3)CC2)cc1C#Cc1cc(F)cc(F)c1 [Compound 29, 1-{3-[(3,5-difluorophenyl)ethynyl]-4-methylbenzoyl}-4-pyridin-2-ylpiperazine] | 41
O=C(c1cccc(C#CC2(O)CCCCC2)c1)N1CCN(c2ccccn2)CC1 [Compound 12, 1-({3-[(4-pyridin-2-ylpiperazin-1-yl)carbonyl]phenyl}ethynyl)cyclohexanol] | 0
Cc1cc(C)c(C#Cc2cc(C(=O)N3CCN(c4ccccn4)CC3)ccc2C)cc1C [Compound 41, 1-{4-methyl-3-[(2,4,5-trimethylphenyl)ethynyl]benzoyl}-4-pyridin-2-ylpiperazine] | 0
Cn1cncc1C#Cc1cccc(C(=O)N2CCN(c3ccccn3)CC2)c1 [Compound 7, 1-{3-[(1-methyl-1H-imidazol-5-yl)ethynyl]benzoyl}-4-pyridin-2-ylpiperazine] | 0

same assay, conditions: @ 10 μM compound; Biological Activity, Table 2A

Compound | PCT INHIB (%) @ 10 μM [%]
CC(=O)c1ccc(N2CCN(C(=O)c3cccc(C#Cc4ccccc4)c3)CC2)cc1 [Compound 74, 1-(4-{-[3-(phenylethynyl)benzoyl]piperazine-1-yl}phenyl)ethanone] | 20

same assay, conditions: @ 10 μM compound; Biological Activity, Table 2A; read-out: PCT INHIB (%) @ 10 μM

Compound | inhibition at 10 µM [%]
Cc1cc(C)nc(N2CCN(C(=O)c3cccc(C#Cc4ccccn4)c3)CC2)n1 [Compound 100, 4,6-dimethyl-2-{4-[3-(pyridin-2-ethynyl)benzoyl]piperazin-1-yl}pyrimidine] | 55
Cc1cc(C)nc(N2CCN(C(=O)c3cncc(C#Cc4ccccc4)c3)CC2)n1 [Compound 136, 4,6-dimethyl-2-(4-{[5-(phenylethynyl)pyridin-3-yl]carbonyl}piperazin-1-yl)pyrimidine] | 0
O=C(c1cccc(C#Cc2cccnc2)c1)N1CCN(c2ccccn2)CC1 [Compound 93, 1-pyridin-2-yl-4-[3-(pyridin-3-ylethynyl)benzoyl]piperazine] | 26
N#Cc1ccc(N2CCN(C(=O)c3ccnc(C#Cc4ccccc4)c3)CC2)nc1 [Compound 122, 6-{4-[2-(phenylethynyl)isonicotinoyl]piperazin-1-yl}nicotinonitrile] | 0
N#Cc1ccc(N2CCN(C(=O)c3cccc(C#Cc4ccccc4)c3)CC2)nc1 [Compound 128, 6-{4-[3-(phenylethynyl)benzoyl]piperazin-1-yl}nicotinonitrile] | 48
O=C(c1ccnc(C#Cc2ccccc2)c1)N1CCN(c2ccccn2)CC1 [Compound 121, 1-[2-(phenylethynyl)isonicotinoyl]-4-pyridin-2-ylpiperazine] | 72
O=C(c1cccc(C#Cc2ccccc2)c1)N1CCN(c2cc(Cl)cc(Cl)c2)CC1 [Compound 84, 1-(3,5-dichlorophenyl)-4-[3-(phenylethynyl)benzoyl]piperazine] | 0
CSc1ccccc1N1CCN(C(=O)c2cccc(C#Cc3ccccc3)c2)CC1 [Compound 80, 1-[2-(methylthio)phenyl]-4-[3-(phenylethynyl)benzoyl]piperazine] | 24
N#Cc1cccnc1N1CCN(C(=O)c2ccnc(C#Cc3ccccc3)c2)CC1 [Compound 139, 2-{4-[2-(phenylethynyl)isonicotinoyl]piperazin-1-yl}nicotinonitrile] | 40

same assay, conditions: Biological Activity, Table 2A; read-out: Median Ki

Compound | Ki [nM]
Cc1cc(C)nc(N2CCN(C(=O)c3cccc(C#Cc4ccccn4)c3)CC2)n1 [Compound 100, 4,6-dimethyl-2-{4-[3-(pyridin-2-ethynyl)benzoyl]piperazin-1-yl}pyrimidine] | 2160
O=C(c1ccnc(C#Cc2ccccc2)c1)N1CCN(c2ccccn2)CC1 [Compound 121, 1-[2-(phenylethynyl)isonicotinoyl]-4-pyridin-2-ylpiperazine] | 1130

same assay, conditions: [3H]-MPEP 4 nM; Table 7A; read-out: Median Ki

Compound | Ki [nM]
COc1ccc(C(=O)N2CCN(c3ccccn3)CC2)cc1/C=C/c1ccccc1 [Compound 182, 1-{4-methoxy-3-[(E)-2-phenylvinyl]benzoyl}-4-pyridin-2-ylpiperazine] | 827

same assay, conditions: [3H]-MPEP displacement, rat mGluR5; no Ki given; read-out: IC50 (printed in the Median Ki column instead of a Ki)

Compound | IC50 [nM]
COc1ccc(C(=O)N2CCN(S(=O)(=O)Cc3ccccc3)CC2)cc1C#Cc1ccccn1 [Compound 234, 1-(benzylsulfonyl)-4-[4-methoxy-3-(pyridin-2-ylethynyl)benzoyl]piperazine] | > 10000
COc1ccc(C(=O)N2CCN(c3ncccc3Cl)CC2)cc1C#Cc1cccc(OCc2ccccc2)c1 [Compound 343, 1-(3-{[3-(benzyloxy)phenyl]ethynyl}-4-methoxybenzoyl)-4-(3-chloropyridin-2-yl)piperazine] | > 10000

same assay, conditions: [3H]-MPEP displacement, rat mGluR5; read-out: Median Ki

Compound | Ki [nM]
COc1ccc(C(=O)N2CCN(c3ccccn3)C(=O)C2)cc1C#Cc1ccccn1 [Compound 330, 4-{[4-methoxy-3-(pyridin-2-ylethynyl)phenyl]carbonyl}-1-pyridin-2-ylpiperazin-2-one] | 122
1-(3-chloropyridin-2-yl)-4-{4-methoxy-3-[(3-nitrophenyl)ethynyl]benzoyl}piperazine [Compound 345] | 3210
COc1ccc(C(=O)N2CCN(c3cc4ccc(Br)cc4cn3)CC2)cc1C#Cc1ccccn1 [Compound 261, 7-bromo-3-{4-[4-methoxy-3-(pyridin-2-ylethynyl)benzoyl]piperazin-1-yl}isoquinoline] | 1380
COc1ccc(C(=O)N2CCCN(c3ccc(C(F)(F)F)cn3)CC2)cc1C#Cc1ccccn1 [Compound 210, 1-[4-methoxy-3-(pyridin-2-ylethynyl)benzoyl]-4-[5-(trifluoromethyl)pyridin-2-yl]-1,4-diazepane] | 851
COc1ccc(C(=O)N2CCN(c3cc(Cl)nc(SC)n3)CC2)cc1C#Cc1ccccn1 [Compound 294, 4-chloro-6-{4-[4-methoxy-3-(pyridin-2-ylethynyl)benzoyl]piperazin-1-yl}-2-(methylthio)pyrimidine] | 99
O=C(c1ccc(OC(F)(F)F)c(C#Cc2ccccn2)c1)N1CCN(c2cccc(C(F)(F)F)c2)CC1 [Compound 337, 1-[3-(pyridin-2-ylethynyl)-4-(trifluoromethoxy)benzoyl]-4-[3-(trifluoromethyl)phenyl]piperazine] | 1570
CCOc1ccc(C(=O)N2CCN(c3ncc(Cl)cc3Cl)CC2)cc1C#Cc1ccccn1 [Compound 319, 1-(3,5-dichloropyridin-2-yl)-4-[4-ethoxy-3-(pyridin-2-ylethynyl)benzoyl]piperazine] | 652
1-(4-chlorobenzyl)-4-[4-methoxy-3-(pyridin-2-ylethynyl)benzoyl]piperazin-2-one [Compound 334] | 54
COc1ccc(C(=O)N2CCN(c3ncccc3Cl)CC2)cc1C#Cc1ccc(Cl)cc1 [Compound 352, 1-{3-[(4-chlorophenyl)ethynyl]-4-methoxybenzoyl}-4-(3-chloropyridin-2-yl)piperazine] | 3190

same assay, conditions: [3H]-MPEP displacement, rat mGluR5 membranes; read-out: Median Ki

Compound | Ki [nM]
O=C(c1ccc(C(F)(F)F)c(C#Cc2ccccn2)c1)N1CCN(c2ccc(C(F)(F)F)cn2)CC1 [Compound 379, 1-{[3-(pyridin-2-ylethynyl)-4-(trifluoromethyl)phenyl]carbonyl}-4-[5-(trifluoromethyl)pyridin-2-yl]piperazine] | 3130
N#Cc1nccnc1N1CCN(C(=O)c2ccc(C(F)(F)F)c(C#Cc3ccccn3)c2)CC1 [Compound 366, 3-(4-{[3-(pyridin-2-ylethynyl)-4-(trifluoromethyl)phenyl]carbonyl}piperazin-1-yl) pyrazine-2-carbonitrile] | 459

same assay, conditions: read-out: Median Ki

Compound | Ki [nM]
Cc1cccc(C#Cc2cc(C(=O)N3CCN(c4cnccn4)CC3)ccc2C)c1 [Compound 59, 2-(4-{4-methyl-3-[(3-methylphenyl)ethynyl]benzoyl}piperazin-1-yl)pyrazine] | 62.5
COc1ccc(C(=O)N2CCN(c3cnccn3)CC2)cc1C#Cc1ccccn1 [Compound 66, 2-{4-[4-methoxy-3-(pyridin-2-ylethynyl)benzoyl]piperazin-1-yl}pyrazine] | 21.2
COc1ccc(C(=O)N2CCN(c3cnccn3)CC2)cc1C#Cc1cccc(C)c1 [Compound 53, 2-(4-{4-methoxy-3-[(3-methylphenyl)ethynyl]benzoyl}piperazin-1-yl)pyrazine] | 8.63
COc1ccc(C(=O)N2CCN(c3ccccn3)CC2)cc1C#CCc1ccccc1 [Compound 16, 1-[4-methoxy-3-(3-phenylprop-1-yn-1-yl)benzoyl]-4-pyridin-2-ylpiperazine] | 43

same assay, conditions: single point, @ 10 μM compound; Table 3A; read-out: PCT INHIB (%) @ 10 μM

Compound | inhibition at 10 µM [%]
O=C(c1cccc(OCc2cccc(Br)c2)c1)N1CCN(c2ccccn2)CC1 [Compound 153, 1-{3-[(3-bromobenzyl)oxy]benzoyl}-4-pyridin-2-ylpiperazine] | 23
COc1ccc(C(=O)N2CCN(c3ccccn3)CC2)cc1OCc1ccccc1 [Compound 158, 1-[3-(benzyloxy)-4-methoxybenzoyl]-4-pyridin-2-ylpiperazine] | 0
O=C(c1cccc(OCc2cccc(F)c2)c1)N1CCN(c2ccccn2)CC1 [Compound 157, 1-{3-[(3-fluorobenzyl)oxy]benzoyl}-4-pyridin-2-ylpiperazine] | 18

same assay, conditions: single point, @ 10 μM compound; Table 7A; read-out: PCT INHIB (%) @ 10 μM

Compound | inhibition at 10 µM [%]
COc1ccc(C(=O)N2CCN(c3ccccn3)CC2)cc1/C=C/c1ccccc1 [Compound 182, 1-{4-methoxy-3-[(E)-2-phenylvinyl]benzoyl}-4-pyridin-2-ylpiperazine] | 86
